What was measured:
Stx1B = Stx1B (Shigella dysenteriae, UniProt Q7BQ98); experiment: biochemical; format: binding, Escherichia coli
T84 cells [1] = experiment: Viability MTT assay; settings: 10%, positive control, 24 h
T84 cells [2] = experiment: TEER measurement of epithelial integrity; settings: 10%, positive control, 24 h

Stx1B, sequence (Q7BQ98 21-89 limits assumed): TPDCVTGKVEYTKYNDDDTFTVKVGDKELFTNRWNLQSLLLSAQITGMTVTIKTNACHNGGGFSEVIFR

OC[C@H]1O[C@@H](O[C@H]2[C@H](O)[C@@H](O)C(O)O[C@@H]2CO)[C@H](O)[C@@H](O)[C@H]1O (mixture of isomers) [Lactose, reference compound]
inhibition of the toxin (in words) (Stx1B): did not show any activity

[N-]=[N+]=N[C@@H]1O[C@H](CO)[C@H](O[C@H]2O[C@H](CO)[C@H](O)[C@H](O)[C@H]2O)[C@H](O)[C@H]1O [Compound 1e]
rel. pot. per sugar (Stx1B): 1

O=C(O)c1cc(OCc2cn([C@@H]3O[C@H](CO)[C@H](O[C@H]4O[C@H](CO)[C@H](O)[C@H](O)[C@H]4O)[C@H](O)[C@H]3O)nn2)cc(OCc2cn([C@@H]3O[C@H](CO)[C@H](O[C@H]4O[C@H](CO)[C@H](O)[C@H](O)[C@H]4O)[C@H](O)[C@H]3O)nn2)c1 [Compound 3]
rel. pot. per sugar (Stx1B): 2.3
rel.pot. (Stx1B): 4.6
IC50 (Stx1B; IC50): 1000 µM

O=C(NCCOc1cc(OCCNC(=O)OCc2cn([C@@H]3O[C@H](CO)[C@H](O[C@H]4O[C@H](CO)[C@H](O)[C@H](O)[C@H]4O)[C@H](O)[C@H]3O)nn2)cc(C(=O)O)c1)OCc1cn([C@@H]2O[C@H](CO)[C@H](O[C@H]3O[C@H](CO)[C@H](O)[C@H](O)[C@H]3O)[C@H](O)[C@H]2O)nn1 [Compound 4]
rel. pot. per sugar (Stx1B): 2
rel.pot. (Stx1B): 4

O=C(O)c1cc(OCCNC(=O)c2cc(OCc3cn([C@@H]4O[C@H](CO)[C@H](O[C@H]5O[C@H](CO)[C@H](O)[C@H](O)[C@H]5O)[C@H](O)[C@H]4O)nn3)cc(OCc3cn([C@@H]4O[C@H](CO)[C@H](O[C@H]5O[C@H](CO)[C@H](O)[C@H](O)[C@H]5O)[C@H](O)[C@H]4O)nn3)c2)cc(OCCNC(=O)c2cc(OCc3cn([C@@H]4O[C@H](CO)[C@H](O[C@H]5O[C@H](CO)[C@H](O)[C@H](O)[C@H]5O)[C@H](O)[C@H]4O)nn3)cc(OCc3cn([C@@H]4O[C@H](CO)[C@H](O[C@H]5O[C@H](CO)[C@H](O)[C@H](O)[C@H]5O)[C@H](O)[C@H]4O)nn3)c2)c1 [Compound 5]
rel. pot. per sugar (Stx1B): 62.5
rel.pot. (Stx1B): 250

O=C(NCCCCCCCCCCCCNC(=O)c1cc(OCc2cn([C@@H]3O[C@H](CO)[C@H](O[C@H]4O[C@H](CO)[C@H](O)[C@H](O)[C@H]4O)[C@H](O)[C@H]3O)nn2)cc(OCc2cn([C@@H]3O[C@H](CO)[C@H](O[C@H]4O[C@H](CO)[C@H](O)[C@H](O)[C@H]4O)[C@H](O)[C@H]3O)nn2)c1)c1cc(OCc2cn([C@@H]3O[C@H](CO)[C@H](O[C@H]4O[C@H](CO)[C@H](O)[C@H](O)[C@H]4O)[C@H](O)[C@H]3O)nn2)cc(OCc2cn([C@@H]3O[C@H](CO)[C@H](O[C@H]4O[C@H](CO)[C@H](O)[C@H](O)[C@H]4O)[C@H](O)[C@H]3O)nn2)c1 [Compound 6]
rel. pot. per sugar (Stx1B): 92
rel.pot. (Stx1B): 367

CCO [ethanol]
T84 cell viability (MTT) (T84 cells [1]): significantly reduced
transepithelial electrical resistance (TEER) values (T84 cells [2]): strongly decreased
